Measured values from US12377069B2, “Compounds, compositions, methods of using, and methods for preparing compounds” (UNIVERSITY OF LOUISVILLE RESEARCH FOUNDATION, INC., priority 2018, dated 2025).

System: human primary monocytes
Test: LPS and EtOH induced TNF-α in human primary monocytes
Assay type: cell-based
Details: EtOH 25 mM 7 days; LPS 50 ng/ml
Description: FIG. 11: UroA reduces the LPS and EtOH induced TNF-α in human primary monocytes. (A) Human primary monocytes treated with UroA and LPS (50 ng/ml) for 6 h. The TNF-α in supernatant was measured. (B) Human primary monocytes were exposed to EtOH (25 mM) for 7 days. LPS (50 ng/ml) and UroA were added at day 6 and incubated for 24 h. The TNF-α levels in supernatant were measured using standard ELISA methods. Statistics performed using unpaired t-test using Graphpad Prism software. Error bars, ±SEM; ***p<0.001; **p<0.01
UroA reduces the LPS and EtOH induced TNF-α in human primary monocytes. Peripheral blood monocytes from chronic alcoholism patients produce increased spontaneous inflammatory mediators such as TNF-α, IL-6, IL-10 and IL-12. To mimic this condition, healthy peripheral blood monocytes were exposed for one week and tested whether UroA/UAS03 reduce the LPS-induced TNF-α.

O=c1oc2cc(O)ccc2c2ccc(O)cc12 [UroA, 3,8-dihydroxy-6H-dibenzo[b,d]pyran-6-one]
LPS-induced TNF-α in chronically EtOH exposed human monocytes: reduced
